These results are taken from patent publication USRE38132E1, “Phenylpyrrolidines, phenylimidazolidines,3-phenyl-1,3-oxizolidines and 3-phenyl-1,3-thiazolidines and their use in the treatment of inflammatory disease” (Boehringer Ingelheim Pharmaceuticals, Inc., priority 1997, dated 2003).

Where two headings read alike, the source gives them in different places. Where only a bound is given, the exact number is not on record here.

Series [1] concerns SKW3 cells.
From the text: MMT Assay to Determine Cytotoxicity
Description of Assay Protocol:
MTT, (3-(4,5-dimethylthiazol-2-yl)-2,5-diphenyl-2H-tetrazolium bromide), is a yellow substrate that is cleaved by cells with active mitochondria to yield a dark blue/purple formazan product. […] The amount of color is proportional to the number of viable cells. This assay system is used to assess the effect of test compounds on cell viability in vitro.
SKW3 cells, which express LFA-1, are used. Cells used in each assay were adjusted to 1.25·10^6 cells/mL and 100 μL of this stock is dispersed into each well of a 96 well, flat bottom microtiter plate. For each condition in a particular experiment, triplicate wells are set up. Serial dilutions of each test compound or vehicle alone are added to each well. Cells are incubated with compound for 4-24 h at 37° C. before cell viability is assessed. Next, 10 μL of filter sterilized MTT is added to each well. The MTT stock is made in phosphate buffered saline at a concentration of 5 mg/mL. Plates are then incubated for 1 h at 37° C., 5% CO2 atmosphere. Periodically, the plates are examined for formazan crystal development.
At the end of the incubation period, formazan crystals are dissolved by the addition of 100 μL of 0.04 N HCl in iso-propyl alcohol to each well. Each well is thoroughly mixed by repeated pipetting with a multichannel pipetter. The plates are allowed to sit at room temperature for 15-20 minutes and are then read with a spectrophotometer. Absorbance is measured at the test wavelength of 570 nm. Data are reported as the concentration range (in μM) wherein 50% of the cells are no longer viable.
For series [2], the system named is cell bound form of LFA-1 (CD18, CD11a) with ICAM-1, SKW3 cells. As to the kind of experiment: Inhibition of SKW3 cell binding to ICAM-1 (PMA-stimulated). It counts as cell-based, human. Particulars: Homo sapiens, read-out: Assay to Detect SKW3 Cells Binding to ICAM IC50. The essentials: (§1)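 Plates coated with sICAM-1 (40 μg/mL) or fibronectin (100 μg/mL) for 1 h; SKW3 cells in RPMI/15% FBS activated with PMA (50 μg/mL final) added with compound, 2 h at 37° C. Unbound cells washed off; value is concentration (μM) giving 50% binding inhibition.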

The subject of series [3] is cell bound fibronectin receptor (VLA4) with fibronectin, SKW3 cells. Kind of series: Inhibition of SKW3 cell binding to fibronectin (selectivity counter-assay). It counts as cell-based, human. To be noted: for IC50: Homo sapiens, read-out: Assay to Detect SKW3 Cells Binding to FIBRONECTIN IC50. An outline of the steps:
as §1

Series [4] has as its target T1, interaction of ICAM-1 with the Leukointegrin CD18/CD11a (LFA-1) (Homo sapiens, UniProt P05107+P20701).
T1 construct: endogenous in cells; sICAM-1: made in house, secreted from transfected CHO DUX cells
Kind of series: Assay to determine inhibition of LFA-1 binding to ICAM-1 (immunopurified LFA-1 on plate-bound sICAM-1, ELISA readout).
From the text: Assay to Determine Inhibition of LFA-1 Binding to ICAM-1 Purpose of Assay: This assay protocol is designed to study the direct antagonism, by a test compound, of the interaction of the CAM, ICAM-1 with the Leukointegrin CD18/CD11a (LFA-1). […] After collection and neutralization of fractions from the TS2/4 column, samples are pooled and precleared with Protein G agarose. […] Wells are washed 3 times with Diluting Buffer. The bound LFA-1 is detected by the addition of a polyclonal antibody directed against a peptide corresponding to the CD18 cytoplasmic tail in a 1:100 dilution with Diluting Buffer and 1% BSA and allowed to incubate for 45 min at 37° C. Wells are washed 3 times with Diluting Buffer and the bound polyclonal antibody is detected by the addition of a 1:4000 dilution of horse radish peroxidase conjugated to goat immunoglobulin directed against rabbit immunoglobulin. […] The lack of the addition of LFA-1 to the binding assay is used as a background control for all samples. A dose-response curve is obtained for all test compounds. Results of these tests are reported as Kd's in μM.

In series [5] the test system is LFA-1 dependent aggregation of JY cells. As to the kind of experiment: JY cell homotypic aggregation assay (PMA-stimulated). It counts as cell-based, human. The essentials:
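JY cells (2·10^5 cells/well) in RPMI 1640 with 10% FCS incubated with test compound and […]; cells settle spontaneously and aggregation is scored at various time points. Values are concentrations (μM) giving 50% inhibition of binding.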

[6] abbreviates: SKW3, values marked c: no inhibition observed up to highest dose.
Where [7] appears, read: values marked c: no inhibition observed up to highest dose.
Where [8] appears, read: values marked e approximated from incomplete dose-response curve.
The mark [9] stands for this setting: No inh = no inhibition observed up to highest dose, exact quantification not always possible due to intrinsic toxicity.

T1 sequence (P20701 26-1170): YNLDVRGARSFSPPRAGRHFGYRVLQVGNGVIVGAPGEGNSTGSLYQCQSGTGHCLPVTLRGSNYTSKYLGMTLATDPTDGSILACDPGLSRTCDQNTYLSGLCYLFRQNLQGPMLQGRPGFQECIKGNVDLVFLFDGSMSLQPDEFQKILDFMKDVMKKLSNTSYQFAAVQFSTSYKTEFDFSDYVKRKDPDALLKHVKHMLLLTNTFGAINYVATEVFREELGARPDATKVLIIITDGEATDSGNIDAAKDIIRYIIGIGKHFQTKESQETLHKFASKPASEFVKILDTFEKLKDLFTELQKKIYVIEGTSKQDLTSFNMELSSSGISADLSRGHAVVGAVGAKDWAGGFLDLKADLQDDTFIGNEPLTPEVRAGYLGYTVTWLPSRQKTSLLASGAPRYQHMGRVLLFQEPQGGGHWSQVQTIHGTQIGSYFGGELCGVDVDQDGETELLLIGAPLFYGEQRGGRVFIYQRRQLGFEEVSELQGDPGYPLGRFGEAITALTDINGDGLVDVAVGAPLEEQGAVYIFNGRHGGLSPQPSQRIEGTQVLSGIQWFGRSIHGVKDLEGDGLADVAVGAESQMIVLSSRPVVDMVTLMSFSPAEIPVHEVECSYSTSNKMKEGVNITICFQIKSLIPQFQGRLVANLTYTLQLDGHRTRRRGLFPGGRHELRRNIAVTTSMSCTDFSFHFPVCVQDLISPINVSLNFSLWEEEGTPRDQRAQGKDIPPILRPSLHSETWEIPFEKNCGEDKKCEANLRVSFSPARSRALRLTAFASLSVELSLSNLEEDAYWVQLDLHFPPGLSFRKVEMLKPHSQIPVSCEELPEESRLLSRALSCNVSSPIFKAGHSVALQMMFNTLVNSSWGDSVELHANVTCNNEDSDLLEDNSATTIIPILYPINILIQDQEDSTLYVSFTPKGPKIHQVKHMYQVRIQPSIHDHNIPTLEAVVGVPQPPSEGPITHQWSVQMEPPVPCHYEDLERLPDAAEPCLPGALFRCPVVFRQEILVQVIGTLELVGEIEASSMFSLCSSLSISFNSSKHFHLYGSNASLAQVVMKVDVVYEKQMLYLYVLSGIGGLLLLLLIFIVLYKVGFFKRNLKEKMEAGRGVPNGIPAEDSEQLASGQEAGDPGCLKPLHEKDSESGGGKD
T1 sequence (P05107 23-769): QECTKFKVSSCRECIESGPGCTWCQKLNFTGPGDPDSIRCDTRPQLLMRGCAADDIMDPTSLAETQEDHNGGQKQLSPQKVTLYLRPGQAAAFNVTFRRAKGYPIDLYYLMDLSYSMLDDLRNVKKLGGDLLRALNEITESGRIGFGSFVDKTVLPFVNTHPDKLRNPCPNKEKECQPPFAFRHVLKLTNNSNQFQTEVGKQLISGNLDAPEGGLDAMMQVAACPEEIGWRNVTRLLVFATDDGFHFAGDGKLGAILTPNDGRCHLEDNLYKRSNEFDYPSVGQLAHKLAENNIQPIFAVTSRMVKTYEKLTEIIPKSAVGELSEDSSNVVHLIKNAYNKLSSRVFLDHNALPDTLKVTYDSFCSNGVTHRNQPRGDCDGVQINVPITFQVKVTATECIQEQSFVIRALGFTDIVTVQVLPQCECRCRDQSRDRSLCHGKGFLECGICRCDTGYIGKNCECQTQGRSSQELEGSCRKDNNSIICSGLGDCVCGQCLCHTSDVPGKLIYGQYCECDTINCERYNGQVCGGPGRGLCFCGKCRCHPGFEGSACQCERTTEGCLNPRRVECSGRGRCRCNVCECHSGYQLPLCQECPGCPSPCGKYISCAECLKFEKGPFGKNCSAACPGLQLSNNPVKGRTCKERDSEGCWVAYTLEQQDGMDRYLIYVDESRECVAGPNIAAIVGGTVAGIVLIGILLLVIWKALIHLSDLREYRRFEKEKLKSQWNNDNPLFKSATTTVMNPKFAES

`C[C@@]1(Cc2ccc(Br)cc2)C(=O)N(c2cc(Cl)cc(Cl)c2)C(=O)N1Cc1ccccn1` [Example 110]: in series [1], the “Cellular Toxicity Assay MTT LD50” value lay in the range of 200 to 400 µM. In addition, the results for the IC50 in series [2] (setting [6]) and in series [5] (Homo sapiens) were 25 µM and 9000 nM, respectively. For the same compound, the “Assay to Detect SKW3 Cells Binding to FIBRONECTIN IC50” value (from here on “Assay to Detect SKW3 Cells Binding”) in series [3] (setting [7]) is reported as “No inh^c”. In series [4] (setting [8]), the affinity, expressed as Kd, was 150 nM.

Turning to `CN1C(=S)N(c2cc(Cl)cc(Cl)c2)C(=O)C1(C)Cc1ccc(Br)cc1` (stereo not drawn) [Example 80], in series [1], the “Cellular Toxicity Assay MTT LD50” value was more than 400 µM. Moreover, the figures for the IC50 in series [2] (setting [6]) and in series [5] (Homo sapiens) were 5 µM and 3200 nM, respectively. The “Assay to Detect SKW3 Cells Binding” value in series [3] (setting [7]) was “No inh^c”. Moreover, in series [4] (setting [8]), binding was put at a Kd of 190 nM.

For `CN1C(=O)N(c2cc(Cl)cc(Cl)c2)C(=O)[C@@]1(C)Cc1ccc(-c2ccccn2)cc1` [Example 187], in series [1], the “Cellular Toxicity Assay MTT LD50” value was 171 µM. The IC50 in series [2] (setting [6]) turned out to be 0.6 µM; in series [5] (Homo sapiens) it was 600 nM. Also, the “Assay to Detect SKW3 Cells Binding” value in series [3] (setting [7]) is recorded as “No inh^c”. This compound also displayed a Kd in series [4] (setting [8]) of 290 nM.

For `C[C@@]1(Cc2ccc(Br)cc2)C(=O)N(c2cc(Cl)cc(Cl)c2)C(=O)N1CCCCCC#N` [Example 257], the “Cellular Toxicity Assay MTT LD50” value in series [1] amounted to 300 µM. Also, the figures for the IC50 in series [2] (SKW3) and in series [5] (Homo sapiens) were 1.6 µM and 600 nM, respectively. Moreover, the “Assay to Detect SKW3 Cells Binding” value in series [3] (setting [9]) is reported as “No inh^c”. Further, the Kd in series [4] was determined as 80 nM.

As for `CN1C(=O)N(c2cc(Cl)cc(Cl)c2)C(=O)C1(C)Cc1ccc(Cl)cc1` (stereo not drawn) [Example 154], the “Cellular Toxicity Assay MTT LD50” value in series [1] turned out to be 200 µM. Besides, the IC50 in series [2] (setting [6]) was 5 to 10 µM; in series [5] (Homo sapiens), 400 nM. In addition, the “Assay to Detect SKW3 Cells Binding” value in series [3] (setting [7]) was “No inh^c”. In series [4] (setting [8]), the affinity, expressed as Kd, was 94 nM.

As to `CN1C(=O)N(c2cc(Cl)cc(Cl)c2)C(=O)C1(C)Cc1cccc(Br)c1` (stereo not drawn) [Example 149], the “Cellular Toxicity Assay MTT LD50” value in series [1] was 170 to 340 µM. Also, the IC50 was 10 µM in series [2] (setting [6]), more than 10 µM in series [3] (setting [6]) and 2900 nM in series [5] (Homo sapiens). The compound also came in with a Kd in series [4] (setting [8]) of 200 nM.

For `CN1C(=O)N(c2cc(Cl)cc(Cl)c2)C(=O)[C@@]1(C)Cc1ccc(-c2cccnc2)cc1` [Example 188], the “Cellular Toxicity Assay MTT LD50” value in series [1] is 56 to 112 µM. Besides, the IC50 in series [2] (setting [6]) is 0.3 to 1 µM; in series [5] (Homo sapiens), 30 nM. Further, in series [3] (setting [7]), the “Assay to Detect SKW3 Cells Binding” value is listed as “No inh^c”. Further, in series [4] (setting [8]), binding was characterised by a dissociation constant (Kd) of 40 nM.

On to `CN1C(=O)N(c2cc(Cl)cc(Cl)c2)C(=O)[C@@]1(C)Cc1cc(Br)cc(Br)c1` [Example 118], for which the “Cellular Toxicity Assay MTT LD50” value in series [1] was in the range of 200 to 400 µM. Besides, the results for the IC50 in series [2] (setting [6]), in series [3] (setting [6]) and in series [5] (Homo sapiens) were more than 100 µM, more than 100 µM and 3400 nM, respectively. In series [4] (setting [8]), the Kd was 460 nM.

For `CC(=O)CN1C(=O)N(c2cc(Cl)cc(Cl)c2)C(=O)[C@@]1(C)Cc1ccc(Br)cc1` [Example 117], the “Cellular Toxicity Assay MTT LD50” value in series [1] worked out at 12 µM. Also, the IC50 in series [2] (setting [6]) turned out to be 12 µM; in series [3] (setting [6]) it was 12 µM; in series [5] (Homo sapiens), 2200 nM. This compound also showed a Kd in series [4] (setting [8]) of 1090 nM.

With `C[C@]1(Cc2ccc([N+](=O)[O-])cc2)NC(=O)N(c2cc(Cl)cc(Cl)c2)C1=O` [Example 44], the “Cellular Toxicity Assay MTT LD50” value in series [1] was 63 to 125 µM. Moreover, the figures for the IC50 in series [2] (setting [6]) and in series [5] (Homo sapiens) were 6 to 12 µM and 300 nM, respectively. Also, in series [3] (setting [7]), the “Assay to Detect SKW3 Cells Binding” value is reported as “No inh^c”. In addition, the Kd in series [4] (setting [8]) came to 420 nM.

With `C[C@]1(Cc2ccc(-c3cccnc3)cc2)NC(=O)N(c2cc(Cl)cc(Cl)c2)C1=O` [Example 190], the “Cellular Toxicity Assay MTT LD50” value in series [1] lay in the range of 50 to 100 µM. Also, the IC50 is 6 to 12 µM in series [2] (setting [6]) and 1400 nM in series [5] (Homo sapiens). In addition, the “Assay to Detect SKW3 Cells Binding” value in series [3] (setting [7]) is recorded as “No inh^c”. Also, the Kd in series [4] (setting [8]) was found to be 430 nM.

As for `CN1C(=O)N(c2cc(Cl)cc(Cl)c2)C(=O)[C@@]1(C)Cc1ccccc1` [Example 266], the “Cellular Toxicity Assay MTT LD50” value in series [1] was more than 500 µM. Also, the IC50 was 25 to 50 µM in series [2] (SKW3); more than 50 µM in series [3] (SKW3, No inh = no inhibition observed up to highest dose, exact quantification not always possible due to intrinsic toxicity); 3000 nM in series [5] (Homo sapiens). In series [4], this compound yielded a Kd of 140 nM.

On to `C[C@@]1(Cc2ccc(Br)cc2)C(=O)N(c2cc(Cl)cc(Cl)c2)C(=O)N1CCCCNC(=N)N` [Example 263], for which the “Cellular Toxicity Assay MTT LD50” value in series [1] fell in the range of 20 to 40 µM. The IC50 was 0.8 to 1.6 µM in series [2] (SKW3) and 800 nM in series [5] (Homo sapiens). For the same compound, the “Assay to Detect SKW3 Cells Binding” value in series [3] (setting [9]) is “No inh^c”. For the same compound, in series [4], the Kd was 90 nM.

As to `C[C@]1(Cc2ccc(C(=O)c3ccccc3)cc2)NC(=O)N(c2cc(Cl)cc(Cl)c2)C1=O` [Example 184], the “Cellular Toxicity Assay MTT LD50” value in series [1] lay in the range of 50 to 100 µM. The values for the IC50 in series [2] (setting [6]) and in series [5] were 0.8 to 1.5 µM and 300 nM, respectively. In addition, the “Assay to Detect SKW3 Cells Binding” value in series [3] (setting [7]) is “No inh^c”. In addition, in series [4] (setting [8]), the Kd is 370 nM.

On to `C[C@@]1(Cc2ccc(Br)cc2)C(=O)N(c2cc(Cl)cc(Cl)c2)C(=O)N1CCCCCNC(=N)N` [Example 264], for which the “Cellular Toxicity Assay MTT LD50” value in series [1] was in the range of 12 to 24 µM. For the same compound, the results for the IC50 in series [2] (SKW3) and in series [5] (Homo sapiens) were 2 to 5 µM and 400 nM, respectively. For the same compound, in series [3] (setting [9]), the “Assay to Detect SKW3 Cells Binding” value is given as “No inh^c”. For the same compound, in series [4], binding was put at a Kd of 120 nM.

On to `C[C@@]1(Cc2ccc(Br)cc2)C(=O)N(c2cc(Cl)cc(Cl)c2)C(=O)N1CCCS(=O)(=O)O` [Example 249], for which, in series [1], the “Cellular Toxicity Assay MTT LD50” value lay in the range of 200 to 400 µM. The IC50 in series [2] (SKW3) is less than 1 µM; in series [5] (Homo sapiens), 400 nM. Besides, the “Assay to Detect SKW3 Cells Binding” value in series [3] (setting [9]) was “No inh^c”. The compound also displayed a Kd in series [4] of 160 nM.

Consider `CC(=O)N1C(=O)N(c2cc(Cl)cc(Cl)c2)C(=O)[C@@]1(C)Cc1ccc([N+](=O)[O-])cc1` [Example 135], for which, in series [1], the “Cellular Toxicity Assay MTT LD50” value is more than 400 µM. Also, the IC50 in series [2] (setting [6]) stood at 25 µM; in series [5] (Homo sapiens) it was 1700 nM. For the same compound, in series [3] (setting [7]), the “Assay to Detect SKW3 Cells Binding” value is on record as “No inh^c”. The compound further yielded a Kd in series [4] (setting [8]) of 200 nM.

For the compound `C[C@]1(Cc2ccc(Br)cc2)NC(=O)N(c2cc(C(F)(F)F)cc(C(F)(F)F)c2)C1=O` [Example 35], the “Cellular Toxicity Assay MTT LD50” value in series [1] lay in the range of 38 to 46 µM. The IC50 is 5 to 10 µM in series [2] (setting [6]) and 800 nM in series [5] (Homo sapiens). The “Assay to Detect SKW3 Cells Binding” value in series [3] (setting [7]) was “No inh^c”. This compound also showed a dissociation constant Kd in series [4] (setting [8]) of 100 nM.

For `C[C@@]1(Cc2ccc(Br)cc2)C(=O)N(c2cc(Cl)cc(Cl)c2)C(=O)N1Cc1ccncc1` [Example 103], in series [1], the “Cellular Toxicity Assay MTT LD50” value lay in the range of 25 to 50 µM. Also, the concentration for half-maximal inhibition (IC50) in series [2] (setting [6]) was 25 µM; in series [3] (setting [6]) it was more than 25 µM; in series [5] (Homo sapiens), 130 nM. This compound also registered an equilibrium dissociation constant (Kd) in series [4] (setting [8]) of 100 nM.

For the compound `CC(C)N1C(=O)N(c2cc(Cl)cc(Cl)c2)C(=O)C1Cc1ccccc1` (stereo not drawn) [Example 10], the “Cellular Toxicity Assay MTT LD50” value in series [1] is more than 500 µM. Moreover, the results for the IC50 in series [2] (setting [6]) and in series [5] (Homo sapiens) were 50 µM and 6300 nM, respectively. Besides, the “Assay to Detect SKW3 Cells Binding” value in series [3] (setting [7]) is given as “No inh^c”. For the same compound, the Kd in series [4] (setting [8]) was 190 nM.

As for `C[C@@]1(Cc2ccc(Br)cc2)C(=O)N(c2cc(Cl)cc(Cl)c2)C(=O)N1Cc1ccc(C(=N)N)cc1` [Example 242], the “Cellular Toxicity Assay MTT LD50” value in series [1] is 16 to 32 µM. Also, the results for the IC50 in series [2] (SKW3) and in series [5] (Homo sapiens) were 10 to 25 µM and 2800 nM, respectively. The “Assay to Detect SKW3 Cells Binding” value in series [3] (setting [9]) is “No inh^c”. In series [4], this compound had a Kd of 400 nM.
